{
  "source": "patent US8143307B2",
  "about": "“Benzothiophen-2-carbonylguanidine derivatives, preparation thereof, and pharmaceutical composition containing the same” (Korea Research Institute of Chemical Technology, priority 2004, dated 2012)",
  "key": {"[1]": {"system": "isolated ischemic rat heart", "assay": "Cardioprotective effect in isolated ischemic rat heart model (Langendorff)", "details": "10 μM, 30 min global ischemia, 30 min reperfusion", "procedure": "Male rats (300 450 g, the Korea Research Institute of Chemical Technology, Experimental Animal Lab) were anesthetized by intraperitoneal injection with sodium pentobarbital at a dose of 100 mg/kg and were intravenously administered with heparine at a dose of 1000 U/kg, followed by the excision of the heart. In detail, a tracheotomy was performed and a tracheal cannula (PE 240) was inserted into the trachea for subsequent artificial ventilation with room air using a rodent ventilator. […] A catheter tip manometer connected to a latex balloon filled with a mixture of ethanol and distilled water (1:1 v/v) was inserted via an incision in the left atrium into the left ventricle, and the intraventricular pressure thereof transmitted to the latex balloon was measured isovolumetrically with a transducer and recorded on a recording system (Linearcorder mark 8 WR 3500) with the aid of an amplifier (Plugsys bridge amplifier). After stabilizing the heart for 15 min, the balloon volume was adjusted to create a left ventricular end-diastolic pressure (LVEDP) of 5 mmHg during the initial baseline period. The volume of the balloon was maintained until the end of the experiment. Baseline heart contraction function, spontaneous heart rate (HR) and coronary flow (CF) were determined from the left ventricular contraction interval. The left ventricular developed pressure (LVDP), which is regarded as an index of contractile function of the isolated heart, was calculated by subtracting left ventricular end-diastolic pressure (LVEDP) from left ventricular peak systolic pressure (LVSP). In contrast to the heart in the body, the Langendorff heart cannot be measured for cardiac output and thus, RPP (rate-pressure product), which is an important indirect indicator for cardiac performance, was calculated by multiplying heart rate (HR) by LVDP. Throughout the experiment, the temperature of the heart was maintained constant by […] in a 37° C. physiological solution to which 95% O2/5% CO2 was continuously supplied. The heart thus stabilized was perfursed for 10 min with a solution of the compounds of the invention or control drugs in DMSO (dimethylsulfoxide) diluted with HBS (final DMSO conc. 0.04%), or with the solvent only (a negative control; 0.04% DMSO) and then measured again for contractile function, heart rate (HR) and coronary flow (CF). The supply of perfusates was completely stopped for 30 min in order to induce global ischemia in the heart, followed by reperfusion for 30 min. The indices (LVDP, HR, LVEDP, and CF) were measured again. After the reperfusion, the total level of lactate dehydrogenase (LDH) in the reperfusates was measured using a kit and taken as an index of ischemic myocardial injury. A negative control group was treated with the solvent only while cariporide was used as a positive control."}, "[2]": {"system": "in vivo ischemic rat heart model", "assay": "Cardioprotective effect on in vivo ischemic rat heart model (coronary occlusion/reperfusion, infarct size)", "details": "45 min occlusion, 90 min reperfusion", "procedure": "The cardioprotective effect of the benzothiophen-2-carbonylguanidine derivatives according to the present invention in in vivo ischemic hearts was judged with regard to their antischemic effects (myocardiac infarction reduction) on rats as follows.\nEach male rat (300˜450 g, the Korea Research Institute of Chemical Technology, Experimental Animal Lab) was anesthetized by intraperitoneal injection with sodium pentobarbital at a dose of 75 mg/kg. Tracheotomy was performed and a tube was inserted into the trachea for subsequent artificial ventilation with a stroke volume of 10 ml/kg and a respiratory rate of 60 breaths/min. The femoral vein and the femoral artery were cannulated for the administration of the compounds and for the measurement of blood pressures, respectively. Meanwhile, the body temperature of the rats, an important factor to influence experimental results in the ischemic myocardiac injury model, was maintained constant at 37° C. using a homeothermic blanket control unit, with a body temperature-monitoring probe inserted into the rectum. Subsequently, rats were continuously measured for mean arterial blood pressure and heart rate HR throughout the experimental time period using a Statham P23XL pressure transducer (Grass Ins., Mass., USA) and an ECG/RATE Coupler (Hugo Sachs Electronic, Germany), respectively, with all continuous changes thereof recorded by Graphtec Linearcorder WR 3310 (Hugo Sachs Electronic).\nThe left coronary artery was occluded according to Selye H.'s method. In detail, after the chest of each rat was partially opened by left thoracotomy, the middle finger of the left hand was pressed against the right side of the chest of the rat to thrust out the heart which was then slightly fixed with the forefinger and the thumb of the same hand. Then, immediately after the left anterior descending coronary artery (LAD) was sutured with a 5-0 silk ligature, the heart was repositioned back in the thoracic cavity with both ends of the suture positioned outside. The ends of the suture were threaded through a PE tube (PE100, 2.5 cm) and allowed to stand for 20 min for stabilization. Through the cannula inserted into the femoral vein, a vehicle or the compounds of the invention were administered and 30 min was needed for sufficient effects of the administered compounds. Cariporide was used as a control. The ends of the suture threaded through the PE tube were pulled taut with hemostatic forceps to vertically press the PE tube against the coronary artery. After occlusion for 45 min, the hemostatic forceps were removed and reperfusion was conducted for 90 min.\nThe coronary artery was reoccluded in the same manner as described above, followed by the intravenous injection of 2 ml of 1% Evans blue. The intravenous injection of an excess of pentobarbital killed the rats, from which the hearts were then excised. The left ventricle was removed alone from the isolated heart and transected from the cardiac apex into 5 or 6 slices. Each slice was weighed. The image of each of the heart slices was captured using a Hi-scope, a compact vision system, and analyzed for blue-stained normal areas and non-stained areas with an image analyzing program (Image Pro Plus). In each slice, the area at risk (AAR) was calculated by multiplying the ratio of the non-stained area to the total area of the slice with the weight of the slice. Sum of the individual area at risk (AAR) for each slice was divided by the total weight of the left ventricle to obtain AAR (%) according to the following mathmatical formula 1.\nSeparately, the heat slices were incubated in 1%. 2,3,5-triphenyltetrazolium chloride (TTC) phosphate buffer (pH 7.4), 37° C., for 15 min and fixed in 10% formalin for 20˜24 hours. In the normal area of the tissue, 2,3,5-triphenyltetrazolium chloride was reduced by the myocardial dehydrogenase in the presence of the cofactor NADH to form formazan dye, which appeared as a brick-red color. […]"}, "cortical neurons": {"system": "cortical neurons", "assay": "Neuroprotective effect against glutamate-induced neurotoxicity", "format": "cell-based, rat", "details": "for TUNEL-Positive Cells (apoptosis): 12 hours after glutamate treatment; for Free LDH Levels (necrosis): 20 hours after glutamate treatment", "procedure": "Cortical neurons were isolated from the brain of 14-day-old fetal rats and cultured in Eagle's MEM (Minimum essential medium) at 37° C. in a 5% CO2 atmosphere. On day 3 or 4 of culturing, 10 μM cytosine-β-arabinofuranoside (AraC) was added to the culture medium to prevent the overgrowth of glial cells. […] On day 7˜9 of culturing, the cells were induced to cellular toxicity by treatment with 100 μM glutamate in combination with the compounds of interest or vehicle alone as a negative control. Necrosis was determined by released LDH (Lactate dehydrogenase) levels at 20 hours after glutamate treatment. For the analysis of apoptosis, the count of TUNEL (Terminal deoxynucleotidyl transferase UTP nick end labeling)-positive cells was measured at 12 hours after glutamate treatment."}},
  "data": [
    {"smiles": "CS(=O)(=O)O.N#Cc1cccc2sc(C(=O)N=C(N)N)cc12", "note": "[Example 42, (4-Cyanobenzothiophene-2-Carbonyl)Guanidine Methanesulfonate]", "values": [
      {"measurement": "LDH (free LDH level upon reperfusion)", "setting": "[1]", "value": 14.7, "unit": "u/g"},
      {"measurement": "LVEDP (left ventricular end-diastolic pressure)", "setting": "[1]", "value": 6.0, "unit": "mmHg"},
      {"measurement": "Myocardiac infarction rate (IS/AAR, %)", "setting": "[2]; 0.1 mg/kg intravenous", "value": 36.9, "unit": "%"},
      {"measurement": "Myocardiac infarction rate (IS/AAR, %)", "setting": "[2]; 0.3 mg/kg intravenous", "value": 34.4, "unit": "%"},
      {"measurement": "TUNEL-Positive Cells (apoptosis)", "setting": "cortical neurons; 0.1 μM with 100 μM glutamate", "value": 28.6},
      {"measurement": "Free LDH Levels (necrosis)", "setting": "cortical neurons; 0.1 μM with 100 μM glutamate", "value": 58.6},
      {"measurement": "TUNEL-Positive Cells (apoptosis)", "setting": "cortical neurons; 1.0 μM with 100 μM glutamate", "value": 23.9},
      {"measurement": "Free LDH Levels (necrosis)", "setting": "cortical neurons; 1.0 μM with 100 μM glutamate", "value": 43.2},
      {"measurement": "TUNEL-Positive Cells (apoptosis)", "setting": "cortical neurons; 10 μM with 100 μM glutamate", "value": 18.8},
      {"measurement": "Free LDH Levels (necrosis)", "setting": "cortical neurons; 10 μM with 100 μM glutamate", "value": 38.8},
      {"measurement": "TUNEL-Positive Cells (apoptosis)", "setting": "cortical neurons; 100 μM with 100 μM glutamate", "value": 12.6},
      {"measurement": "Free LDH Levels (necrosis)", "setting": "cortical neurons; 100 μM with 100 μM glutamate", "value": 32.3},
      {"measurement": "necrosis and apoptosis of neurons (glutamate-induced neurotoxicity)", "setting": "cortical neurons; 0.1-100 μM with 100 μM glutamate", "value": "inhibited the necrosis and apoptosis of neurons in dose-dependent manners"}
    ]}
  ]
}
